Source: patent publication US5129937A, “Pyridyloxypyrimidine derivatives, preparation process thereof, and herbicidal compositions containing the same as active ingredients” (Mitsui Toatsu Chemicals Incorporated, priority 1989, dated 1992)

What was measured:
Corn (Zea maize) = assay: Upland Foliar Application Test, crop injury; format: in vivo; settings: 30 g ai/a; foliar application at 2-3 leaf stage, emulsion; observed on the 30th day
Excerpt: (§1) Resin-made 1/10000-are pots were filled with the soil of an upland field. Redroot pigweed, morningglory (Ipomoea pupurea), common lambsquarters, foxtail meadow, johnsongrass, barnyardgrass, green foxtail, large crabgrass, soybean, corn and cotton were separately seeded and were allowed to germinate in a green house. When each plant grew to the stage of 2-3 leaves, an emulsion formulated from a predetermined amount of each test compound in a similar manner to the method described in Formulation Example 11 was diluted with water and then sprayed at a predetermined application rate by means of a pressure-operated ULV (ultra low volume) sprayer. The application rate was controlled at 5 l per are. Influence to the crops and weeds were observed on the 30th day after the spray of the herbicides. The results are shown in Table 4 in which the degree of damages of each test plant and the degree of injury to each crop are shown in a similar manner to Test 2.

Soybean (Glycine max) = assay: Upland Foliar Application Test, crop injury; format: in vivo; settings: 30 g ai/a; foliar application at 2-3 leaf stage, emulsion; observed on the 30th day
Excerpt: as §1

[1] = tested on: Cotton (Gossypium indicum); assay: Upland Foliar Application Test, crop injury; format: in vivo; settings: 30 g ai/a; foliar application at 2-3 leaf stage, emulsion; observed on the 30th day
Excerpt: as §1

[2] = tested on: Barnyardgrass (Echinochloa crus-galli); assay: Submerged Soil Treatment Test (Pre-Emergence Treatment); format: in vivo; settings: 30 g ai/a, granule, observed 30 days later
Experimental: (§2) 1/5000-are Wagner pots were filled with soil. Seeds or tubers of barnyardgrass, bulrush and Sagittaria pygmaea were seeded or planted under submerged condition. Two pairs of rice seedlings (2-3 leaf stage), which had been reared in advance, were transplanted to each pot and were allowed to germinate in a green house. Each pair consisted of two rice seedlings. On day later (before emergence of weeds), each pot was treated with a granule which had been prepared by processing a predetermined amount of the test composition in accordance with a similar method to the method described in Formulation Example 9. The state of emergence of weeds and the state of injury of rice were observed 30 days later. In the table, the degrees of damages of the test plants and the degrees of injury of rice are shown in a similar manner to Example 2.

[3] = tested on: Bulrush (Scirpus juncoides); assay: as above; format: in vivo; settings: 30 g ai/a, granule, observed 30 days later
Experimental: as §2

[4] = tested on: Arrowhead sp. (Sagittaria pygmaea); assay: as above; format: in vivo; settings: 30 g ai/a, granule, observed 30 days later
Experimental: as §2

Johnsongrass [5] = assay: Upland Foliar Application Test; format: in vivo; settings: 30 g ai/a; foliar application at 2-3 leaf stage, emulsion; observed on the 30th day
Excerpt: as §1

[6] = tested on: Barnyardgrass (Echinochloa crus-galli); assay: Upland Foliar Application Test; format: in vivo; settings: 30 g ai/a; foliar application at 2-3 leaf stage, emulsion; observed on the 30th day
Excerpt: as §1

Redroot Pigweed [7] = assay: Upland Foliar Application Test; format: in vivo; settings: 30 g ai/a; foliar application at 2-3 leaf stage, emulsion; observed on the 30th day
Excerpt: as §1

[8] = tested on: Foxtail (Setaria viridis); assay: Upland Foliar Application Test; format: in vivo; settings: 30 g ai/a; foliar application at 2-3 leaf stage, emulsion; observed on the 30th day
Excerpt: as §1

[9] = tested on: Crabgrass (Digitaria adsendens); assay: Upland Foliar Application Test; format: in vivo; settings: 30 g ai/a; foliar application at 2-3 leaf stage, emulsion; observed on the 30th day
Excerpt: as §1

Foxtail meadow [10] = assay: Upland Foliar Application Test; format: in vivo; settings: 30 g ai/a; foliar application at 2-3 leaf stage, emulsion; observed on the 30th day
Excerpt: as §1

Common lambsquarters [11] = assay: Upland Foliar Application Test; format: in vivo; settings: 30 g ai/a; foliar application at 2-3 leaf stage, emulsion; observed on the 30th day
Excerpt: as §1

Johnsongrass [12] = assay: Upland Soil Application Test; format: in vivo; settings: 30 g ai/a; soil application before emergence, wettable powder; observed 30 days later
Experimental: (§3) Resin-made 1/2500-are pots were filled with the soil of an upland field. After they were fertilized, soybean, corn and cotton were seeded and 2-3 cm soil covering was applied. Seeds of redroot pigweed, morningglory (Ipomoea purpurea), common lambsquarters, barnyardgrass, green foxtail, large crabgrass, foxtail meadow and johnsongrass had been uniformly mixed with the soil. They were allowed to germinate in a green house. One day later (before emergence of weeds), a wettable powder prepared from a predetermined amount of each test compound in a similar manner to the method described in Formulation Example 1 was diluted with water and then sprayed evenly at an application rate equal to 10 l per are onto the surface of the soil by means of a pressure-operated ULV (ultra low volume) sprayer. Influence to the crops and weeds were observed 30 days later. The results are shown in Table 3, in which the degree of damages of each test plant and the degree of injury to each crop were determined by comparing the air-dried weights of the test plant and crop with those of the corresponding plant and crop in untreated pots and are shown in accordance with the following standard: […]

[13] = tested on: Barnyardgrass (Echinochloa crus-galli); assay: Upland Soil Application Test; format: in vivo; settings: 30 g ai/a; soil application before emergence, wettable powder; observed 30 days later
Experimental: as §3

Redroot Pigweed [14] = assay: Upland Soil Application Test; format: in vivo; settings: 30 g ai/a; soil application before emergence, wettable powder; observed 30 days later
Experimental: as §3

[15] = tested on: Foxtail (Setaria viridis); assay: Upland Soil Application Test; format: in vivo; settings: 30 g ai/a; soil application before emergence, wettable powder; observed 30 days later
Experimental: as §3

[16] = tested on: Crabgrass (Digitaria adsendens); assay: Upland Soil Application Test; format: in vivo; settings: 30 g ai/a; soil application before emergence, wettable powder; observed 30 days later
Experimental: as §3

Foxtail meadow [17] = assay: Upland Soil Application Test; format: in vivo; settings: 30 g ai/a; soil application before emergence, wettable powder; observed 30 days later
Experimental: as §3

Common lambsquarters [18] = assay: Upland Soil Application Test; format: in vivo; settings: 30 g ai/a; soil application before emergence, wettable powder; observed 30 days later
Experimental: as §3

[19] = tested on: ALS (acetolactate synthase); assay: ALS (Acetolactate Synthase) Inhibition Test, barnyardgrass enzyme; format: biochemical; settings: enzymoreaction inhibition rate at 10 ppm (5 μg/0.5 ml)
Experimental: To determine the selectivity in enzyme level between crops and weeds, an ALS inhibition test was conducted using pea as a representative of broadleaf crops and barnyardgrass as a representative of gramineous weeds.
After seeds of pea and barnyardgrass were allowed to germinate at 25° C. for 8-14 days in a dark place, partially-purified suspensions (Suspensions A) of acetolactate syntase were separately obtained from seedlings in accordance with the method described in the literature, Plant Physiology, 75, 827-831. In a test tube, […], followed by the addition of 0.15 ml of a 20 mM K2 HPO4 solution and 0.25 ml of a reaction substrate medium which consisted of 40 mM of K2 HPO4, 40 mM of sodium pyruvate, 1 mM of TPP, 1 mM of MgCl2 and 20 μM of FAD so that 0.4 ml of a reaction solution (Solution B) was prepared. Added to 0.4 ml of Solution B was 0.1 ml of Suspension A. After the resultant mixture was shaken for 1 hour in a thermostat water bath controlled at 30° C., 50 μl of 6N sulfuric acid were added to terminate the reaction.
Next, the reaction-terminated liquid mixture was transferred into a thermostat water bath controlled at 60° C. and was heated for 15 minutes. Thereafter, 0.5 ml of a 0.5% creatine solution and 0.5 ml of a 5% alkaline α-naphthol solution were added, and the resultant mixture was maintained at 60° C. for 15 minutes. As a result, the test solution developed a pink-red color. After the above operation, the absorbance of the test solution at 525 nm was measured by a spectrophotometer (Absorbance 1 of Test Compound).
On the other hand, the absorbance (Absorbance 2 of Blank) of a solution obtained by subjecting a portion of Solution B, said portion being free of the test compound, to the above operation and the absorbance (Absorbance 3 of sulfuric acid terminated) of another solution obtained by subjecting another portion of Solution B, said portion containing 50 μl of 6N sulfuric acid as a test compound, were measured at the same time. […] [formula]

| SMILES | Crop injury Corn (Zea maize) (Corn (Zea maize)) | Crop injury Soybean (Glycine max) (Soybean (Glycine max)) | Crop injury Cotton (Gossypium indicum) [1] | Herbicidal effects Barnyardgrass (Echinochloa crus-galli) [2] | Herbicidal effects Bulrush (Scirpus juncoides) [3] | Herbicidal effects Arrowhead sp. (Sagittaria pygmaea) [4] | Herbicidal effects Johnsongrass (Johnsongrass [5]) | Herbicidal effects Barnyardgrass (Echinochloa crus-galli) [6] | Herbicidal effects Redroot Pigweed (Redroot Pigweed [7]) | Herbicidal effects Foxtail (Setaria viridis) [8] | Herbicidal effects Crabgrass (Digitaria adsendens) [9] | Herbicidal effects Foxtail meadow (Foxtail meadow [10]) | Herbicidal effects Common lambquarters (Common lambsquarters [11]) | Herbicidal effects Johnsongrass (Johnsongrass [12]) | Herbicidal effects Barnyardgrass (Echinochloa crus-galli) [13] | Herbicidal effects Redroot Pigweed (Redroot Pigweed [14]) | Herbicidal effects Foxtail (Setaria viridis) [15] | Herbicidal effects Crabgrass (Digitaria adsendens) [16] | Herbicidal effects Foxtail meadow (Foxtail meadow [17]) | Herbicidal effects Common lambquarters (Common lambsquarters [18]) | other results |
| --- | --- | --- | --- | --- | --- | --- | --- | --- | --- | --- | --- | --- | --- | --- | --- | --- | --- | --- | --- | --- | --- |
| COc1cc(OC)nc(Oc2cccnc2C(OC)OC)n1 [Compound No. 2, 3-(4.6-dimethoxy-2-pyrimidinyloxy)-2-pyridinecarboxaldehyde dimethylacetal] | 0 (91-100 (No damages)) | 0 (91-100 (No damages)) | 0 (91-100 (No damages)) | 5 (0-5 (Death)) | 5 (0-5 (Death)) | 5 (0-5 (Death)) | 5 (0-5 (Death)) | 4 (6-10 (Severe damages)) | 5 (0-5 (Death)) | 4 (6-10 (Severe damages)) | 4 (6-10 (Severe damages)) | 4 (6-10 (Severe damages)) | 4 (6-10 (Severe damages)) | 5 (0-5 (Death)) | 4 (6-10 (Severe damages)) | 4 (6-10 (Severe damages)) | 5 (0-5 (Death)) | 5 (0-5 (Death)) | 5 (0-5 (Death)) | 5 (0-5 (Death)) | Inhibition rate (%) Barnyardgrass [19]: 81% |
| CCOC(OCC)c1ncccc1Oc1nc(OC)cc(OC)n1 [Compound No. 3, 3-(4,6-dimethoxy-2-pyrimidinyloxy)-2-pyridinecarboxaldehyde diethylacetal] | 0 (91-100 (No damages)) | 0 (91-100 (No damages)) | 0 (91-100 (No damages)) | 5 (0-5 (Death)) | 5 (0-5 (Death)) | 5 (0-5 (Death)) | 5 (0-5 (Death)) | 5 (0-5 (Death)) | 5 (0-5 (Death)) | 5 (0-5 (Death)) | 5 (0-5 (Death)) | 5 (0-5 (Death)) | 5 (0-5 (Death)) | 5 (0-5 (Death)) | 4 (6-10 (Severe damages)) | 5 (0-5 (Death)) | 4 (6-10 (Severe damages)) | 4 (6-10 (Severe damages)) | 5 (0-5 (Death)) | 5 (0-5 (Death)) | Inhibition rate (%) Barnyardgrass [19]: 84% |
| CCCCOC(OCCCC)c1ncccc1Oc1nc(OC)cc(OC)n1 [Compound No. 4] | 0 (91-100 (No damages)) | 0 (91-100 (No damages)) | 0 (91-100 (No damages)) | 5 (0-5 (Death)) | 5 (0-5 (Death)) | 5 (0-5 (Death)) | 5 (0-5 (Death)) | 5 (0-5 (Death)) | 5 (0-5 (Death)) | 5 (0-5 (Death)) | 5 (0-5 (Death)) | 5 (0-5 (Death)) | 5 (0-5 (Death)) | 5 (0-5 (Death)) | 5 (0-5 (Death)) | 5 (0-5 (Death)) | 5 (0-5 (Death)) | 5 (0-5 (Death)) | 5 (0-5 (Death)) | 5 (0-5 (Death)) | Inhibition rate (%) Barnyardgrass [19]: 94% |
